According to PMC7424564 (Pharmacology Research & Perspectives, 2020):
In brackets after ≈: the same amount, converted by molar mass. Several values for one entry are separate records, joined by “and”; a condition that tells them apart may be missing. Identical values can stand only once. Entries after “also recorded” stand apart in the source; their conditions may differ. Like-named read-outs stand apart in the source and are kept apart here. Blank lines part the entries; values can stand above or below the molecule they belong to.

Legend:
[1] = test system: mutant BTK (C481S); conditions: cited from earlier work
[2] = target: mutant BTK (C481S) (Homo sapiens, UniProt Q06187, C481S); experiment: BTK enzyme activity assay; type: biochemical
Chain of mutant BTK (C481S) (Homo sapiens, UniProt Q06187, C481S) (Q06187 whole entry C481S): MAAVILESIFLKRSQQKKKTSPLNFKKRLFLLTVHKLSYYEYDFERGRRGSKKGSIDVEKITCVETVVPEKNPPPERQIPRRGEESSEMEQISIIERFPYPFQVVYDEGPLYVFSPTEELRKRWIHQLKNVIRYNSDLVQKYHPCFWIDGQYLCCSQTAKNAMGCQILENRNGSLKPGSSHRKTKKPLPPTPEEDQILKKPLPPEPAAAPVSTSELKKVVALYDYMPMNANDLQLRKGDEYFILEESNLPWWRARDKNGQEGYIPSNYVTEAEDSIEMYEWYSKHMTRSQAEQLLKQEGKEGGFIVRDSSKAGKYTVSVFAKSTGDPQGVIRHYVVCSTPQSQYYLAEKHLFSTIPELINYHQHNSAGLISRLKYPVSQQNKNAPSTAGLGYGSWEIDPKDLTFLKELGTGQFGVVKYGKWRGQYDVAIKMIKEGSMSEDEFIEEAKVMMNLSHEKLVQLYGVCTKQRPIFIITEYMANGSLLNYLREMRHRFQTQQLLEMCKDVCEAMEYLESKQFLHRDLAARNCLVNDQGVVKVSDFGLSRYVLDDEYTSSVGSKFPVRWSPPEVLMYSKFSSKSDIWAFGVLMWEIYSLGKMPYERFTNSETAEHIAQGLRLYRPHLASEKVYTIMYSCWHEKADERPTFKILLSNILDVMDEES

[3] = target: BTK‐WT (Homo sapiens, UniProt Q06187); experiment: Ki determination with Omnia Tyr peptide kit; type: biochemical
Chain of BTK‐WT (Q06187 whole entry): as the sequence (Q06187 whole entry C481S) above, with S481C counted along it

[4] = target: T1, BTK (Homo sapiens, UniProt Q06187); experiment: Kinase profiling; type: biochemical
T1 sequence (Q06187 whole entry): as the sequence (Q06187 whole entry C481S) above, with S481C counted along it

[5] = target: HCK (Homo sapiens, UniProt P08631); experiment: Kinase profiling; type: biochemical
Chain of HCK (P08631 whole entry): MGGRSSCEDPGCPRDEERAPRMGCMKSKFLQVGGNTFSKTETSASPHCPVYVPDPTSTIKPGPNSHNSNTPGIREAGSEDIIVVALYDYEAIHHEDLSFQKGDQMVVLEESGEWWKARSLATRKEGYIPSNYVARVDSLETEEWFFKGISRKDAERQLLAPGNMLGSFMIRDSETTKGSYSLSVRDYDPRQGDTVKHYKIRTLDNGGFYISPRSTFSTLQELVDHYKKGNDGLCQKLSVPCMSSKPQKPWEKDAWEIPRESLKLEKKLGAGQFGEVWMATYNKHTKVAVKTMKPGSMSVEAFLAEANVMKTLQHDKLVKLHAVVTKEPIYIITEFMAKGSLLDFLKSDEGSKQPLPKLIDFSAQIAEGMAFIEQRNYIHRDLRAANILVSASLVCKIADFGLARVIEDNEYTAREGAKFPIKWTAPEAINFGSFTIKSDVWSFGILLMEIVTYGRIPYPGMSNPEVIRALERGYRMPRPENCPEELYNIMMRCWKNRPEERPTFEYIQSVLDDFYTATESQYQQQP

[6] = target: JAK3 (Homo sapiens, UniProt P52333); experiment: Kinase profiling; type: biochemical
[7] = target: TEC (Homo sapiens, UniProt P42680); experiment: Kinase profiling; type: biochemical
Chain of TEC (P42680 whole entry): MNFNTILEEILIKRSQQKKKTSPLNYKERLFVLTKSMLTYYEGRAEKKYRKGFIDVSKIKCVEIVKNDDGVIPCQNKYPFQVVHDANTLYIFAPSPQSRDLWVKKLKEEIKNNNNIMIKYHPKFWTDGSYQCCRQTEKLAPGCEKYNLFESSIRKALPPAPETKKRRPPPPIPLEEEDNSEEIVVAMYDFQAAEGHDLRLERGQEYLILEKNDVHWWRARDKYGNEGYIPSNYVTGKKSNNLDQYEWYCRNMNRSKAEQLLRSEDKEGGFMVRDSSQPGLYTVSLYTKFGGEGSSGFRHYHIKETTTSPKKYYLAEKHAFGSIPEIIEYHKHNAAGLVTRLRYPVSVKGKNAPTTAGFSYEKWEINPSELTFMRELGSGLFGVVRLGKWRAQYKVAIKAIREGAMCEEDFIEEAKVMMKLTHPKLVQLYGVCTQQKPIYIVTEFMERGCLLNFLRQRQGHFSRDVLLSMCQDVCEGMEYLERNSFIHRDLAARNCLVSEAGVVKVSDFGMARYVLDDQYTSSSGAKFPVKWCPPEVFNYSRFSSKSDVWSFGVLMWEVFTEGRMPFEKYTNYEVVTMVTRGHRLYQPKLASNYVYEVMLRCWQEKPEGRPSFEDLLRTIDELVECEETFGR

[8] = test system: TMD8 cells; experiment: Cell cytotoxicity assay; type: cell-based; conditions: Homo sapiens, TMD8, 96 h, read-out: IC50 cell proliferation TMD8
[9] = test system: HBL‐1 cells; experiment: Cell cytotoxicity assay; type: cell-based; conditions: HBL1, 96 h, read-out: IC50 cell proliferation HBL‐1
[10] = test system: U2932 cells; experiment: Cell cytotoxicity assay; type: cell-based; conditions: for IC50: Homo sapiens
[11] = test system: Raji cells; experiment: Cell cytotoxicity assay; type: cell-based; conditions: Homo sapiens, read-out: cell killing potency (IC50) Raji
[12] = target: T1, BTK; experiment: Fluorescence competition binding assay
[13] = target: T1, BTK; experiment: Receptor residence time after washout in THP‐1 cells; type: binding; conditions: 500 nmol/L for 1 hour, 24 hours, densitometric scanning
[14] = test system: phospho‐BTK (Y223); experiment: Phospho‐protein analysis in THP‐1 cells; type: cell-based, human
[15] = test system: phospho‐PLCγ2 (Y1217); experiment: Phospho‐protein analysis in THP‐1 cells; type: cell-based; conditions: Homo sapiens, THP-1, 1 h, read-out: IC50 PLCγ2‐phosphorylation (Y1217)
[16] = test system: TNF‐α secretion; experiment: Cytokine ELISA, TNF‐α secretion in THP‐1 cells; type: cell-based; conditions: Homo sapiens, THP-1, read-out: IC50 TNF‐α secretion
[17] = test system: IL‐8 secretion; experiment: Cytokine ELISA, IL‐8 secretion in TMD8 cells; type: cell-based; conditions: Homo sapiens, TMD8, 16 h, read-out: IC50 IL‐8 secretion
[18] = pH dependent solubility; type: physicochemical
[19] = Caco‐2 permeability/efflux ratio; type: in vitro ADME; conditions: human, Caco-2
[20] = test system: Caco‐2 cell monolayers; experiment: Caco‐2 permeability/efflux ratio; type: in vitro ADME; conditions: Caco2 monolayer
[21] = In vitro metabolism in liver microsomes; type: in vitro ADME; conditions: mouse liver microsomes
[22] = In vitro metabolism in liver microsomes; type: in vitro ADME; conditions: rat liver microsomes
[23] = In vitro metabolism in liver microsomes; type: in vitro ADME; conditions: dog liver microsomes
[24] = In vitro metabolism in liver microsomes; type: in vitro ADME; conditions: human liver microsomes
[25] = In vitro metabolism in liver microsomes; type: in vitro ADME; conditions: monkey liver microsomes
[26] = target: CYP1A2 (Homo sapiens, UniProt P05177); experiment: In vitro CYP inhibition in human liver microsomes; type: in vitro ADME
Chain of CYP1A2 (P05177 whole entry): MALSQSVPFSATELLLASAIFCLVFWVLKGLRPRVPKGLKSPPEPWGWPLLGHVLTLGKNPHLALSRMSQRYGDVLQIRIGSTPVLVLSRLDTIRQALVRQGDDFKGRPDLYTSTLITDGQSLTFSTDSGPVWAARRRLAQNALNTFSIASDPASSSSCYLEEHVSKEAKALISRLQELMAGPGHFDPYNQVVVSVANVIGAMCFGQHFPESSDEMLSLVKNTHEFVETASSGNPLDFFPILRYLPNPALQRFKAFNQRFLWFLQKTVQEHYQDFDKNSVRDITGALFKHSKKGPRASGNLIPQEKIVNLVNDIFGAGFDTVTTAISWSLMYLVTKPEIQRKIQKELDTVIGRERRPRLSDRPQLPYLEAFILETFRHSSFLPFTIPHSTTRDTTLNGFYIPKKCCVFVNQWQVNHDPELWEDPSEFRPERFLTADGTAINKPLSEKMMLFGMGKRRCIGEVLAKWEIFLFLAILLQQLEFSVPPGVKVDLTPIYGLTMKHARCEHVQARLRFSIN

[27] = target: CYP2C19 (Homo sapiens, UniProt P33261); experiment: In vitro CYP inhibition in human liver microsomes; type: in vitro ADME
Chain of CYP2C19 (P33261 whole entry): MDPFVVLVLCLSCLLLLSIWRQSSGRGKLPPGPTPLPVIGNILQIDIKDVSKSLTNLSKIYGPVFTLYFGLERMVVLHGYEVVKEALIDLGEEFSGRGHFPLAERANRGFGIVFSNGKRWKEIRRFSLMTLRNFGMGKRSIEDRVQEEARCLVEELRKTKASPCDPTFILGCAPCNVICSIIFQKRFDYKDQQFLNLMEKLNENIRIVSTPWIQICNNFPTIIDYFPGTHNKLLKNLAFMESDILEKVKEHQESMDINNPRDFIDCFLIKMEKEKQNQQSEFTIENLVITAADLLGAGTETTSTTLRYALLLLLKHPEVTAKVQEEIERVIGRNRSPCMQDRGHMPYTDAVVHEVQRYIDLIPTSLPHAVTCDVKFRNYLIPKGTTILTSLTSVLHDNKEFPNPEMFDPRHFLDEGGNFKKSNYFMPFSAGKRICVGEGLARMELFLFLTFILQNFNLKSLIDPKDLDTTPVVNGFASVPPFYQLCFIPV

[28] = target: CYP2D6 (Homo sapiens, UniProt P10635); experiment: In vitro CYP inhibition in human liver microsomes; type: in vitro ADME
Chain of CYP2D6 (P10635 whole entry): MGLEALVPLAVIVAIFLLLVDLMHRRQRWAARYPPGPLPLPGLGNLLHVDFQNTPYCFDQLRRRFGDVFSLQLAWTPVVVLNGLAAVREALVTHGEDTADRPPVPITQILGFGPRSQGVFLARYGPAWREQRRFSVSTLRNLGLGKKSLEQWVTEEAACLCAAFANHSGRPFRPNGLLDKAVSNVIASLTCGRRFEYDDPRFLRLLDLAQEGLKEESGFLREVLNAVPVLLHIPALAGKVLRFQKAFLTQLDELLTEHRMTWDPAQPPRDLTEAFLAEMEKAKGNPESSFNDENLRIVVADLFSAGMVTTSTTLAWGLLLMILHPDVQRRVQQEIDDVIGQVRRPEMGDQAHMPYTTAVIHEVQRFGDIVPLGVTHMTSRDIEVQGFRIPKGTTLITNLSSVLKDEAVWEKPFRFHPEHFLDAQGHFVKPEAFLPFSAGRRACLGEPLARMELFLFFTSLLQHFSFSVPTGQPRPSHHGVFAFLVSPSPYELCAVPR

[29] = target: CYP3A4 (Homo sapiens, UniProt P08684); experiment: In vitro CYP inhibition in human liver microsomes; type: in vitro ADME
Chain of CYP3A4 (P08684 whole entry): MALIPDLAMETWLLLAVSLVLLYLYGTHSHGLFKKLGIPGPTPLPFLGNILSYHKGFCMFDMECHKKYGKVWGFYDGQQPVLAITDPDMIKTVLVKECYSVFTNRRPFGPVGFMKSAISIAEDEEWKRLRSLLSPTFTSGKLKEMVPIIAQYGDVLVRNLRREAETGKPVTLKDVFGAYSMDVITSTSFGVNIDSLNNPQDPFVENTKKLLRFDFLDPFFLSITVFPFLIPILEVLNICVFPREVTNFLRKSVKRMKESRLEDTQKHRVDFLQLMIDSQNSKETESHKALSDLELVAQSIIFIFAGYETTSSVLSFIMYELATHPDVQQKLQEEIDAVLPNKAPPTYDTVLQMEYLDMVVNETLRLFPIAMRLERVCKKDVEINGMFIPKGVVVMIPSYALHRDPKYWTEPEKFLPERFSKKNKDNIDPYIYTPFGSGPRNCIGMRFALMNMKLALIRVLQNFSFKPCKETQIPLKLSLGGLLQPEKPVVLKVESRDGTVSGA

[30] = target: CYP2C8 (Homo sapiens, UniProt P10632); experiment: In vitro CYP inhibition in human liver microsomes; type: in vitro ADME
Chain of CYP2C8 (P10632 whole entry): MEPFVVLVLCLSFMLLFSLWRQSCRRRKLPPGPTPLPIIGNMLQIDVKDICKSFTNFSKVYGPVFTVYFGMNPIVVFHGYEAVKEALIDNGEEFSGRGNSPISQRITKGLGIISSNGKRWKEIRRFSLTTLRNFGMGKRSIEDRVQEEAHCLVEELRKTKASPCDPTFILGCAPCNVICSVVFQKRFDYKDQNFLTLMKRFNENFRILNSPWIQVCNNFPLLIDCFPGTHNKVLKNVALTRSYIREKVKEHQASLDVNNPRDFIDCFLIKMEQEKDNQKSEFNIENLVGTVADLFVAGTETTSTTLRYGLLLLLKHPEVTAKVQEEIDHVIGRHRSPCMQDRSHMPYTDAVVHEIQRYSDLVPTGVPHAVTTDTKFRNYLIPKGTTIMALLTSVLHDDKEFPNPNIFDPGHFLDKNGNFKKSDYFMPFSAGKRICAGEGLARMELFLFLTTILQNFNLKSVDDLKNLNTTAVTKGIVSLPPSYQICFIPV

[31] = target: CYP2C9 (Homo sapiens, UniProt P11712); experiment: In vitro CYP inhibition in human liver microsomes; type: in vitro ADME
Chain of CYP2C9 (P11712 whole entry): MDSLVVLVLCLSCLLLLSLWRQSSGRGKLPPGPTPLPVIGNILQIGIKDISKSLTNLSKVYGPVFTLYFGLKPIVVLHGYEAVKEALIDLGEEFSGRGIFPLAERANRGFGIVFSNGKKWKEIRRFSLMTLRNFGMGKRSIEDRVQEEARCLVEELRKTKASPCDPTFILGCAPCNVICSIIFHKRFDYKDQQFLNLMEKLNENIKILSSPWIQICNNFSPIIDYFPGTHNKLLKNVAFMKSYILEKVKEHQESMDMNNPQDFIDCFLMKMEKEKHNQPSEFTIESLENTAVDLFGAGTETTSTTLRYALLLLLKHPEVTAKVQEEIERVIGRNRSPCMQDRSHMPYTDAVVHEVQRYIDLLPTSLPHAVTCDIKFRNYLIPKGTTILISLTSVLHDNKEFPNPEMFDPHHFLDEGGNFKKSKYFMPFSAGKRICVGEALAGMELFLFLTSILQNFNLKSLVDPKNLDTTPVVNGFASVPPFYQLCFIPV

[32] = Plasma protein binding; type: in vitro ADME; conditions: rat
[33] = Plasma protein binding; type: in vitro ADME; conditions: human
[34] = In vivo pharmacokinetics in mice; conditions: male, BALB/c, mouse, plasma
[35] = In vivo pharmacokinetics in rats; parameters: species or system male Wistar rats; conditions: rat
[36] = test system: collagen‐induced arthritis (CIA); experiment: Collagen‐induced arthritis in mice; type: in vivo, DBA1/J male mice; conditions: for reduction of clinical scores compared with vehicle controls: at study termination; for group mean histologic severity score of paws: vehicle 10.4
[37] = test system: SCW induced arthritis; experiment: Streptococcal cell wall; type: in vivo, Sprague Dawley rats
[38] = Toxicological studies in rats; type: in vivo; conditions: rats up to 300 mg/kg dose (unpublished observation)
[39] = test system: TMD‐8 DLBCL xenograft tumor; experiment: TMD‐8 xenograft model; conditions: for tumor growth inhibition: 20 consecutive days
[40] = test system: TMD8 cells; experiment: Cell washout cytotoxicity assay; conditions: TMD‐8 cells
[41] = test system: IL‐6 secretion; experiment: Cytokine ELISA, IL‐6 secretion in TMD8 cells; conditions: read-out: IC50 IL‐6 secretion, TMD‐8 cells, 16 hours
[42] = test system: U2932 cell line; conditions: cited from earlier work
[43] = test system: IL‐6; conditions: read-out: IC50 for IL‐6 inhibition; in‐vitro assays; cited from earlier work
[44] = test system: arthritis; conditions: cited from earlier work
[45] = male, Wistar, plasma, iv, 1 mg/kg
[46] = male, Wistar, plasma, po, 3 mg/kg

SMILES: CC#CC(=O)N1CCC[C@H]1c1nc(-c2ccc(C(=O)Nc3ccccn3)cc2)c2c(N)nccn12 [ACP‐196]
activity for the mutant BTK [1]: appreciable activity

SMILES: CC#CC(=O)N1CC[C@@H](n2c(=O)n(-c3ccc(Oc4ccccc4)cc3)c3c(N)ncnc32)C1 [ONO/GS‐4050]
activity for the mutant BTK [1]: appreciable activity

IC50 [2]: 14 nM
Ki [3]: 14 nM
IC50 [4]: 27 nM
IC50 [5]: > 10000 nM
IC50 [6]: > 10000 nM
IC50 [7]: 38 nM
IC50 [12]: 1 nM
ZYBT1 still bound with BTK after washout [13]: more than 95%
IC50 ([14]; Homo sapiens, THP-1, 1 h, read-out: IC50 BTK‐phosphorylation (Y223)): 2 nM
IC50 [15]: 114 nM
IC50 [16]: 1 nM
IC50 [17]: 0.2 nM
solubility ([18]; buffer, pH 4.5, aqueous buffer): < 2 µM
solubility ([18]; buffer, pH 6.8, aqueous buffer): < 2 µM
solubility ([18]; pH 1.2, simulated gastric fluid): 500 µM (≈ 247 µg/mL)
solubility ([18]; purified water, water): < 2 µM
Papp at 2 µmol/L [19]: 3.3 ×10⁻⁶ cm/s
efflux transporter substrate [20]: substrate of efflux transporters
mClint [21]: 0.46 mL/min/gm liver
% metabolized ([21]; 1 µmol/L, 30 minutes, NADPH): up to 13%
mClint [22]: 2.62 mL/min/gm liver
% metabolized ([22]; 1 µmol/L, 30 minutes, NADPH): 55%
mClint [23]: 0.67 mL/min/gm liver
% metabolized ([23]; 1 µmol/L, 30 minutes, NADPH): ≤ 18%
mClint [24]: 1.28 mL/min/gm liver
% metabolized ([24]; 1 µmol/L, 30 minutes, NADPH): ≤ 32%
mCLlint [25]: 3.49 mL/min/gm liver
% metabolized ([25]; 1 µmol/L, 30 minutes, NADPH): 66%
IC50 [26]: > 30000 nM
IC50 [27]: > 30000 nM
IC50 [28]: > 30000 nM
IC50 [29]: > 30000 nM
IC50 [30]: 5000 to 15000 nM and 5500 nM
IC50 [31]: 5000 to 15000 nM and 14700 nM
fraction unbound [32]: 0.088
fraction unbound [33]: 0.016
clearance ([34]; iv, 1 mg/kg): 39.5 mL/min/kg
half-life ([34]; iv, 1 mg/kg): 24.6 min
AUC ([34]; po, 3 mg/kg): 590 ng·h/mL
Cmax ([34]; po, 3 mg/kg): 703 ng/mL
Tmax ([34]; po, 3 mg/kg): 15 min
half-life ([34]; po, 3 mg/kg): 45.6 min
Vd [35, 45]: 0.88 ± 0.12 L/kg
clearance [35, 45]: 36 ± 7.8 mL/min/kg
half-life [35, 45]: 36 ± 6 min
AUC [35, 46]: 908 ± 170 ng·h/mL
bioavailability [35, 46]: 75%
half-life [35, 46]: 132 ± 78 min
Cmax ([35]; male, Wistar, plasma, po, 3 mg/kg, peak plasma concentration (Cmax), rats, oral (3 mg/mg), mean ± SD, n = 4): 650 ± 222 ng/mL
exposure to free drug at efficacy dose ([35]; considering 91% PPB): 360 nmol/L
IC50 [41]: 0.4 nM
SMILES: C=CC(=O)N1CC2CC(n3nc(-c4ccc(C(=O)Nc5ccccn5)cc4)c4c(N)ncnc43)CC2C1 (centres unmarked) [ZYBT1, 4‐(1‐(2‐acryloyloctahydrocyclopenta[c]pyrrol‐5‐yl)‐4‐amino‐1H‐pyrazolo[3,4‐d]pyrimidin‐3‐yl)‐N‐(pyridin‐2‐yl)benzamide]
IC50 [8]: 1 nM
IC50 [9]: 12 nM
IC50 ([10]; U2932, 96 h, read-out: IC50 cell proliferation U2932): 961 nM
IC50 ([10]; U2932, read-out: IC50 U2932): ~1000 nM
fold resistance of U2932 versus TMD‐8 and HBL‐1 ([10]; within ABC‐DLBCL subgroup): ~ 1000 fold
IC50 [11]: 15000 nM
phosphorylation of BTK after washout ([14]; THP‐1 cells, 500 nmol/L for 1 hour, washout, 24 hours): completely abolished
concentration that completely abrogates phosphorylation of tyrosine 223 ([14]; THP‐1 cells, one hour): ≥ 30 nmol/L
reduction of clinical scores compared with vehicle controls ([36]; 0.125 mg/kg once daily oral): 22%
group mean histologic severity score of paws ([36]; 0.125 mg/kg once daily): 5
reduction of clinical scores compared with vehicle controls ([36]; 0.25 mg/kg once daily oral): 61%
group mean histologic severity score of paws ([36]; 0.25 mg/kg once daily): 3.75
reduction of clinical scores compared with vehicle controls ([36]; 0.5 mg/kg once daily oral): 93%
group mean histologic severity score of paws ([36]; 0.5 mg/kg once daily): 1
efficacy in arthritis model compared with ibrutinib ([36]; 0.6 mg/kg ZYBT1 versus 3 mg/kg Ibrutinib): comparable efficacy as 3 mg/kg Ibrutinib
reduction of clinical scores compared with vehicle controls ([36]; 1 mg/kg once daily oral): 97%
group mean histologic severity score of paws ([36]; 1 mg/kg once daily): 0.2
body weight change ([36]; 0.125, 0.25, 0.5 & 1 mg/kg, OD, end of the study (Figure S5)): did not observe any body weight change
lowest, significantly efficacious dose ([36]; once daily): 0.25 mg/kg
time to improvement in clinical signs of disease after initiation of dosing ([36]; once daily oral dosing): 2 days
inhibition of paw volume ([37]; 75 mg/kg dose): complete inhibition of paw volume
serum levels of IL‐6 ([37]; 0.2, 1, 5, 25, 75 mg/kg): reduced with the treatment in a dose‐dependent manner
body weight ([37]; 0.2, 1, 5, 25, 75 mg/kg, SCW control animals lost weight): restored the body weight in a dose dependent manner
hematological and biochemical profile, clinical signs and body weight [38]: did not show any change in hematological and biochemical profile, clinical signs and body weight
tumor growth inhibition ([39]; 1.5 mg/kg BID oral): 10%
tumor growth inhibition ([39]; 3 mg/kg BID oral): 50%
anti‐tumor efficacy compared with ibrutinib ([39]; 12.5 mg/kg, BID, intra peritoneal, 14 consecutive days (Figure S2)): comparable; also recorded: slightly better potency compared to Ibrutinib
tumor growth inhibition ([39]; 15 mg/kg BID oral): 88%
anti‐tumor efficacy compared with acalabrutinib ([39]; 15 mg/kg, BID, p.o., 14 consecutive days (Figure S3)): much better efficacy than acalabrutinib
effect on body weight ([39]; 1.5, 3 & 15 mg/kg, p.o, BID, 20 days (Figure S4)): does not have any effect on the body weight
time for which cell killing is maintained after drug wash‐off ([40]; 25 nmol/L): at least 48 hours

SMILES: Cc1nc(Nc2ncc(C(=O)Nc3c(C)cccc3Cl)s2)cc(N2CCN(CCO)CC2)n1 [dasatinib]
cytotoxic effect after drug wash‐off ([40]; 100 nmol/L): failed to exert its effect when washed off; also recorded: completely lost its cytotoxic potential

SMILES: C=CC(=O)N1CCC[C@@H](n2nc(-c3ccc(Oc4ccccc4)cc3)c3c(N)ncnc32)C1 [ibrutinib]
IC50 ([1]; read-out: IC50 mutant BTK, C481S): 1000 nM
sensitivity of U2932 cell line to cytotoxicity [42]: resistant
IC50 [43]: 3.9 nM
ED50 anti‐arthritic activity [44]: 2.6 mg/kg/day
